Converted amounts (≈) assume the structure as drawn. Values belong to the molecule of their own block, whether it stands above or below them.
Assays:
Arginase [1] = target: T1, Arginase (Leishmania amazonensis, UniProt O96394); test: Inhibition of Leishmania amazonensis Arginase
Arginase [2] = target: T1, Arginase; test: Inhibition of Leishmania amazonensis Arginase assessed as inhibition constant
[3] = Inhibition of Leishmania braziliensis DNA topoisomerase I
[4] = Inhibition of recombinant rat liver arginase
Leishmania donovani [5] = test: Antileishmanial activity against Leishmania donovani promastigotes infected in golden hamster assessed as reduction in parasite load in spleen at 3 mg/kg administered twice per week for 4 weeks relative to control; format: functional; design: scale not given: the % may be the effect or the level left
Leishmania amazonensis [6] = test: Antileishmanial activity against Leishmania amazonensis promastigotes assessed as reduction in parasite growth after 72 hrs by CCK-8 assay; format: functional, organism-based
Leishmania mexicana = test: Antileishmanial activity against Leishmania mexicana promastigotes MHOM/B2/62/BEL21 assessed as reduction in parasite growth by tryphan blue staining based analysis; format: functional, organism-based
Leishmania amazonensis [7] = test: Antileishmanial activity against Leishmania amazonensis axenic amastigote assessed as inhibition of parasite growth incubated for 72 hrs by MTT colorimetric assay; format: functional, organism-based
Leishmania amazonensis [8] = test: Antileishmanial activity against Leishmania amazonensis axenic promastigotes assessed as inhibition of parasite growth incubated for 72 hrs by MTT colorimetric assay; format: functional, organism-based
Leishmania infantum [9] = test: Antileishmanial activity against Leishmania infantum amastigotes assessed as inhibition of parasite growth; format: functional, organism-based
Leishmania donovani [10] = test: Antileishmanial activity against Leishmania donovani MHOM/IN/1983/AG83 promastigote assessed as reduction in parasite growth incubated for 12 hrs by MTT assay; format: functional, organism-based; settings: MHOM/IN/1983/AG83, 12 h
Leishmania donovani [11] = test: Antileishmanial activity against Leishmania donovani promastigotes infected in hamster assessed as reduction in parasite load in spleen; format: functional, organism-based
Leishmania infantum [12] = test: Antileishmanial activity against Leishmania infantum infected in BALB/c mouse assessed as reduction of parasite burden in spleen at 2.5 mg/kg for 15 days relative to control; format: functional; design: scale not given: the % may be the effect or the level left; settings: time 15 day
Leishmania infantum [13] = test: Antileishmanial activity against Leishmania infantum MCAN/ES/ 89/IPZ229/1/89 axenic amastigotes assessed as reduction in parasite viability treated for 24 hrs by PI staining based flow cytometry; format: functional, organism-based; settings: MCAN/ES/ 89/IPZ229/1/89, 24 h
Leishmania infantum [14] = test: Antileishmanial activity against Leishmania infantum MCAN/ES/ 89/IPZ229/1/89 promastigote assessed as reduction in parasite viability incubated for 24 hrs by PI staining based flow cytometry; format: functional, organism-based; settings: MCAN/ES/ 89/IPZ229/1/89, 24 h
[15] = Inhibition of Leishmania infantum Trypanothione reductase
Leishmania donovani [16] = test: Antileishmanial activity against Leishmania donovani promastigotes assessed as reduction in parasitic growth by MTT assay; format: functional, organism-based
Leishmania amazonensis [17] = test: Antiprotozoal activity against Leishmania amazonensis axenic amastigotes assessed as growth inhibition measured after 5 days by MTT assay; format: functional, organism-based; settings: 120 h
Leishmania infantum [18] = test: Inhibition of Leishmania infantum Arginase expressed in Escherichia coli BL21 (DE3) at 100 uM by enzymatic assay relative to control
Leishmania infantum [19] = test: Inhibition of Leishmania infantum promastigotes Arginase expressed in Escherichia coli BL21 (DE3) at 100 uM by enzymatic assay relative to control
Leishmania donovani [20] = test: Antileishmanial activity against Leishmania donovani Ag83 amastigotes infected in BALB/c mouse macrophage assessed as cell viability incubated for 48 hrs by PI staining based analysis; format: functional, organism-based; settings: Ag83, 48 h
Leishmania infantum [21] = test: Antileishmanial activity against GFP-expressing Leishmania infantum intracellular amastigotes infected in human THP-1 derived macrophage cells assessed as reduction in parasite viability measured for 72 hrs by resazurin/alamar blue fluorometric assay; format: functional, organism-based; settings: THP-1, 72 h

- IC50 (Arginase [1]): 28 µM
- Ki (Arginase [2]): 1.3 µM
SMILES: O=C(/C=C/c1ccc(O)c(O)c1)O[C@@H](Cc1ccc(O)c(O)c1)C(=O)O

- IC50 [3]: 5.2 µM
SMILES: CCCCCC(C1=C(O)C(=O)c2ccccc2C1=O)C1=C(O)C(=O)c2ccccc2C1=O

- IC50 [4]: 0.77 µM
SMILES: Oc1cc(O)c2c(c1)O[C@@H](c1ccc(O)c(O)c1)[C@H](O)C2 [(-)-CATECHIN]

SMILES: O=C(Nc1ccc(F)c(-c2ccn3c(N4CCOCC4)cnc3n2)c1)N1CCCC1 [GSK-3494245]
- Activity (Leishmania donovani [5]): 95%

SMILES: O=c1cc(-c2ccc(O)c(O)c2)oc2c(C3OC(CO)[C@@H](O)[C@@H](O)[C@@H]3O)c(O)cc(O)c12 (some centres undefined)
- IC50 (Leishmania amazonensis [6]): 15.9 µM

SMILES: O=C(O[C@@H]1Cc2c(O)cc(O)cc2O[C@@H]1c1cc(O)c(O)c(O)c1)c1cc(O)c(O)c(O)c1 [EPIGALOCATECHIN GALLATE]
- IC50 [4]: 3.8 µM

SMILES: O=c1cc(-c2ccc(O)c(O)c2)oc2cc(O)cc(O)c12 [LUTEOLIN]
- IC50 (Arginase [1]): 9 µM

SMILES: C[C@@H]1[C@H](O)[C@@H](C)/C=C/C=C/C=C/C=C/C=C/C=C/C=C/[C@H](O[C@@H]2O[C@H](C)[C@@H](O)[C@H](N)[C@@H]2O)C[C@@H]2O[C@](O)(C[C@@H](O)C[C@@H](O)[C@H](O)CC[C@@H](O)C[C@@H](O)CC(=O)O[C@H]1C)C[C@H](O)[C@H]2C(=O)O [AMPHOTERICIN B]
- IC50 (Leishmania mexicana): 0.036 µg/mL (≈ 0.039 µM)

- IC50 (Arginase [1]): 12 µM
SMILES: O=c1cc(-c2ccccc2)oc2c(O)c(O)ccc12 [7,8-DIHYDROXYFLAVONE]

SMILES: COc1cccc2c1C(=O)c1c(O)c3c(c(O)c1C2=O)C[C@@](O)(C(=O)CO)C[C@@H]3O[C@H]1C[C@H](N)[C@H](O)[C@H](C)O1 [DOXORUBICIN]
- IC50 (Leishmania amazonensis [7]): 12 µM
- IC50 (Leishmania amazonensis [8]): 11.8 µM

SMILES: COc1cccc(C2Nc3cccnc3[C@H]3c4ccccc4C[C@@H]23)c1 (some centres undefined)
- IC50 (Leishmania infantum [9]): 0.54 µM

- IC50 (Leishmania donovani [11]): 11.5 µM
SMILES: O=C(c1ccc(Br)cc1)c1cc(O)cc(-c2ccc(Br)cc2)c1
- IC50 (Leishmania donovani [10]): 6.01 µM

SMILES: O=c1c(O)c(-c2ccc(O)c(O)c2)oc2cc(O)cc(O)c12 [QUERCETIN]
- IC50 (Arginase [1]): 4.3 µM

- IC50 (Arginase [1]): 14 µM
- Ki (Arginase [2]): 26 µM
SMILES: CC1OC(O[C@H]2[C@H](O)[C@@H](OCCc3ccc(O)c(O)c3)OC(CO)[C@H]2OC(=O)/C=C/c2ccc(O)c(O)c2)C(O)C(O)C1O (some centres undefined)

- IC50 [3]: > 100 µM
SMILES: COc1ccc(C(C2=C(O)C(=O)c3ccccc3C2=O)C2=C(O)C(=O)c3ccccc3C2=O)cc1

SMILES: COc1cc2c3c(n(CCCN4CCOCC4)c(=O)c2cc1OC)-c1cc2c(cc1C3=O)OCO2 [INDOTECAN]
- Activity (Leishmania infantum [12]): 80%

- IC50 [15]: 5.1 µM
SMILES: NCCNCc1nccn1-c1ccc(-c2nc(CCc3cccc4ccccc34)cs2)c(OCCN2CCNC2=O)c1
- EC50 (Leishmania infantum [13]): 12.8 µM
- EC50 (Leishmania infantum [14]): 12.8 µM

SMILES: COC(=O)c1ccc(C2OC(C)(C)C3CC(=O)C(C)C2C3)cc1 (centres undefined)
- IC50 (Leishmania donovani [16]): 4.9 µM

SMILES: O=C1c2ccccc2-c2c1c1ccc([N+](=O)[O-])cc1c(=O)n2CCCN1CCOCC1
- Activity (Leishmania infantum [12]): 80%

SMILES: COc1c(O)ccc2c1c[n+](C)c1c3cc4c(cc3ccc21)OCO4
- IC50 (Leishmania amazonensis [17]): 0.54 µM

- inhibition (Leishmania infantum [18]): 71.9%
- inhibition (Leishmania infantum [19]): 55.2%
SMILES: O=C(/C=C/c1ccc([N+](=O)[O-])cc1)c1ccc(Br)cc1

- IC50 (Leishmania donovani [11]): 9.81 µM
SMILES: O=C1OC(c2ccc(Cl)cc2)c2cc(-c3ccc(Cl)cc3)cc(O)c21 (centres undefined)
- IC50 (Leishmania donovani [10]): 5.4 µM

SMILES: COC[C@@H](Cc1ccc(OC)c(OC)c1)[C@@H](COC)Cc1cc(OC)c2c(c1)OCO2
- EC50 (Leishmania donovani [20]): 1.26 µM

SMILES: CCCCCCCCCCCCCCCCOP(=O)([O-])OCC[N+](C)(C)C [MILTEFOSINE]
- IC50 (Leishmania mexicana): 2.18 µg/mL (≈ 5.35 µM)

SMILES: O=C(CC12CC3CC(CC(C3)C1)C2)Nc1ccc([Se][Se]c2ccc(NC(=O)C34CC5CC(CC(C5)C3)C4)cc2)cc1
- EC50 (Leishmania infantum [21]): 1.19 µM

SMILES: CCc1ccc2c(c1)C1c3ccccc3CC1C(c1ccccn1)N2 (centres undefined)
- IC50 (Leishmania mexicana): 1 µg/mL (≈ 3.06 µM)
